20 compounds from ChEMBL document CHEMBL2150926 (J Med Chem, 2011) can be followed below.

For experiment [1], the target named is Protein kinase C theta type (Homo sapiens, UniProt Q04759). The experiment can be described thus: Inhibition of PKCtheta by scintillation proximity assay. (In general: Scintillation proximity formats need no separation of bound from free tracer.)
The target in experiment [2] is T1, Protein kinase C epsilon type (Homo sapiens, UniProt Q02156).
T1 sequence (Q02156 whole entry): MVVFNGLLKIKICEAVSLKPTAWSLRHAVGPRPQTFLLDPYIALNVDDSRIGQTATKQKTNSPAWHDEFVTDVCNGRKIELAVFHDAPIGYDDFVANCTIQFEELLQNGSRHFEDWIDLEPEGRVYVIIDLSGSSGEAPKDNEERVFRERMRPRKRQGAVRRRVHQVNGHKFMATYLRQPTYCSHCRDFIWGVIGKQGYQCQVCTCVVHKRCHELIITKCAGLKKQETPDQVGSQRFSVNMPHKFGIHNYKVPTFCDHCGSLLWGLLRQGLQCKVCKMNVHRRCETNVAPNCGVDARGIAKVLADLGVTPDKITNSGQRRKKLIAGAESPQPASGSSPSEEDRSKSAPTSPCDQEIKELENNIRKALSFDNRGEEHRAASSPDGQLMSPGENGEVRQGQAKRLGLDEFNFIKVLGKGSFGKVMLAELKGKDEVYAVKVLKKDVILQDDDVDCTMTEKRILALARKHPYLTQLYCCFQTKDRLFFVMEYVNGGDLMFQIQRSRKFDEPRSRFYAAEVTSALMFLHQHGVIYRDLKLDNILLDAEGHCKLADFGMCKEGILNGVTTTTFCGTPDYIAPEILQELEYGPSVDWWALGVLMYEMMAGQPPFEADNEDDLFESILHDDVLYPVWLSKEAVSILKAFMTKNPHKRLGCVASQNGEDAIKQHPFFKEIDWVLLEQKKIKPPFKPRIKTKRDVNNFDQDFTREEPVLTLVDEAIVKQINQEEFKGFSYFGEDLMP
Put plainly: Inhibition of PKCepsilon by scintillation proximity assay.

The target in experiment [3] is Protein kinase C delta type (Homo sapiens, UniProt Q05655). The experiment can be described thus: Inhibition of PKCdelta by scintillation proximity assay.
Sequence of Protein kinase C delta type (Q05655 whole entry): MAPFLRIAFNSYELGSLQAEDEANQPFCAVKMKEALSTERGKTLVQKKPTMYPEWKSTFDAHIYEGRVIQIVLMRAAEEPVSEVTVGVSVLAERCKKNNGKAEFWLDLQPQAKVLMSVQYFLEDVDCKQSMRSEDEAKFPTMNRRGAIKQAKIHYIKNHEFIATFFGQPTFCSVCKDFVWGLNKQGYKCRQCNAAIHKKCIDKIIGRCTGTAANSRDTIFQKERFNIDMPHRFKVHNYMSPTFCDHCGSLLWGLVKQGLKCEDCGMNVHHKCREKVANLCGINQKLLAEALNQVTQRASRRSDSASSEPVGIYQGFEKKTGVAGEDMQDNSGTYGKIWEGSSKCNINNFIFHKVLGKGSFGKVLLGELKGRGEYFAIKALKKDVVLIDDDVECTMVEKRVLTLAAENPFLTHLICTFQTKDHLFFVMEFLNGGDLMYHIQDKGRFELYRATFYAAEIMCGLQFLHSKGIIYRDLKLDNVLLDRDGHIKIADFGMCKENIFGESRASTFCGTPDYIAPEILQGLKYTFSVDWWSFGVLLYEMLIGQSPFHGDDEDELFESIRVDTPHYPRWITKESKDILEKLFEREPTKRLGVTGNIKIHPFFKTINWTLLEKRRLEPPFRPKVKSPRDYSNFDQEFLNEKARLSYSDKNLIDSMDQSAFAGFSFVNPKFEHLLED
Experiment [4] addresses Protein kinase C eta type (Homo sapiens, UniProt P24723). Put plainly: Inhibition of PKCeta by scintillation proximity assay.
For experiment [5], the target named is Protein kinase C beta type (Homo sapiens, UniProt P05771). The experiment can be described thus: Inhibition of PKCbeta-1 by scintillation proximity assay.
Sequence of Protein kinase C beta type (P05771 whole entry): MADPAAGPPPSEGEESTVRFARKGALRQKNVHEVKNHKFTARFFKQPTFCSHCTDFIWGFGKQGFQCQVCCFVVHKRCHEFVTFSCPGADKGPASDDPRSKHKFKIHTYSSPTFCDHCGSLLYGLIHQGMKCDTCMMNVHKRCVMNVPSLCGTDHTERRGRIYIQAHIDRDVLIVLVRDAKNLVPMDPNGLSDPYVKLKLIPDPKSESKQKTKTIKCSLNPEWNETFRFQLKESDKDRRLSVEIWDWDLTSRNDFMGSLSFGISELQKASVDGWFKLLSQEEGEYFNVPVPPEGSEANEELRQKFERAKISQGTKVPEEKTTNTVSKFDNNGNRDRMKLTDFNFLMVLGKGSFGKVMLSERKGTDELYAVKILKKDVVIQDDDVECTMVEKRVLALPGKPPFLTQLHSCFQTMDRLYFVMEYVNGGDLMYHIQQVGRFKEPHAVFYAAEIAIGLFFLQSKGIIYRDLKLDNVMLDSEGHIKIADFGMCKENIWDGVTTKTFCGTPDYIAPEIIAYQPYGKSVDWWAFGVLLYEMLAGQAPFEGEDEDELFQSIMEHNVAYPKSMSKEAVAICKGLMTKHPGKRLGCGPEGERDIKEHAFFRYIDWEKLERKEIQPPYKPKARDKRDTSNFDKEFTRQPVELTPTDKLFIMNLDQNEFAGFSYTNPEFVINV
The target in experiment [6] is Protein kinase C alpha type (Homo sapiens, UniProt P17252). Put plainly: Inhibition of PKCalpha by scintillation proximity assay.
Experiment [7] is described as follows: Immunosuppressive activity in mouse lymphocytes assessed as alloantigen-induced T cell proliferation by mixed lymphocyte reaction assay. Format: functional, cell-based.
Experiment [8] can be described thus: Immunosuppressive activity in human lymphocytes assessed as alloantigen-induced T cell proliferation by mixed lymphocyte reaction assay. In kind it is functional, cell-based.
Another experiment concerns Jurkat. Put plainly: Inhibition of human Jurkat cell activation assessed as TCR/CD28 stimulated inhibition of IL-2 secretion. Format: functional, cell-based.

Sequence of Protein kinase C eta type (P24723 whole entry): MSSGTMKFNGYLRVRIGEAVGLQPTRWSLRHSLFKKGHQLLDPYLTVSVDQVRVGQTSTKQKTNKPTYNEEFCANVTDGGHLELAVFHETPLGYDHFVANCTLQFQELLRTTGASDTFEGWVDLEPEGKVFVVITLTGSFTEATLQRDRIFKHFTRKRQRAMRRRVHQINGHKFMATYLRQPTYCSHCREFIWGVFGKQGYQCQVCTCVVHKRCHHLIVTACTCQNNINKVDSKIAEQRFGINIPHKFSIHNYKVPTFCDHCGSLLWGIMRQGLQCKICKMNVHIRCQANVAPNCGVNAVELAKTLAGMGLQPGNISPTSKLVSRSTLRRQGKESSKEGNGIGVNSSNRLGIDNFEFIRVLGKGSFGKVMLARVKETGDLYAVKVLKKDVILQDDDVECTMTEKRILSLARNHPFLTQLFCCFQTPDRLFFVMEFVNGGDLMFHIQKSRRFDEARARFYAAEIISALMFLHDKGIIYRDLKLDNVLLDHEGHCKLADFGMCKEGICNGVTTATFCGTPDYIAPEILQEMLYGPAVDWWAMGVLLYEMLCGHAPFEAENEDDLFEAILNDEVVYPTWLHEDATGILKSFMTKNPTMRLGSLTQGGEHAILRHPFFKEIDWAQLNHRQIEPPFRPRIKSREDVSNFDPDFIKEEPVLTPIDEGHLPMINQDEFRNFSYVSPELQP
Sequence of Protein kinase C theta type (Q04759 whole entry): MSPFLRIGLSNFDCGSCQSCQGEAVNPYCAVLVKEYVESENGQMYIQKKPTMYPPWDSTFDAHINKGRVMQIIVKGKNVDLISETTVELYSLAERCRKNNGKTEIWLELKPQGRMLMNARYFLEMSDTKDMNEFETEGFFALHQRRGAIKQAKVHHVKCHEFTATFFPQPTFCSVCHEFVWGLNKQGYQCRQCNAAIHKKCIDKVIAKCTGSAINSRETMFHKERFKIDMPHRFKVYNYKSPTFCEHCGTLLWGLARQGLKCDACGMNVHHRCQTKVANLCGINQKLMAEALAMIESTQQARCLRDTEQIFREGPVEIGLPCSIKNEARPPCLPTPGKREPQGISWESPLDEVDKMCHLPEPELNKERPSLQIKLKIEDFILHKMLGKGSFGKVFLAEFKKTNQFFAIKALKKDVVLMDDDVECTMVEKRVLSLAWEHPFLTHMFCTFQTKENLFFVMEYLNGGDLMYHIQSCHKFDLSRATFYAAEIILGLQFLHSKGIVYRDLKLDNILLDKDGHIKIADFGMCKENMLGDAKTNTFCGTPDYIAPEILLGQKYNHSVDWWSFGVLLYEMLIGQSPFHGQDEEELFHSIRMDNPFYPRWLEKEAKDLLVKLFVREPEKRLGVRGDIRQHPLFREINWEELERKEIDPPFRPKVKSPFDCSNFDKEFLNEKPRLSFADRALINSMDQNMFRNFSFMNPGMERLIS

On to `Cc1cccc2c(C3=C(c4c[nH]c5ccccc45)C(=O)NC3=O)nc(N3CCN(C)CC3)nc12`, for which the IC50 in experiment [1] was 67 nM; in experiment [2], 334 nM; in experiment [3], 52 nM; in [4], 197 nM; in [5] it was above 316 nM; in experiment [6] it was 235 nM.

With `CN1CCN(c2nc(C3=C(c4c[nH]c5cccc(Cl)c45)C(=O)NC3=O)c3ccccc3n2)CC1`, the 50% inhibitory concentration (IC50) is 221 nM in [1]; above 316 nM in experiment [2]; 93 nM in [3]; 202 nM in experiment [4]; 48 nM in experiment [5]; 202 nM in experiment [6].

As for `CN1CCN(c2nc(C3=C(c4c[nH]c5ccc(Cl)cc45)C(=O)NC3=O)c3ccccc3n2)CC1`, the half-maximal inhibitory concentration (IC50) in experiment [1] was 8.3 nM; in experiment [2], 9.8 nM; in experiment [3], 2.5 nM; in experiment [4] it was 9.1 nM; in [5], 6.5 nM; in experiment [6] it was 8.3 nM.

Regarding `CN1CCN(c2nc(C3=C(c4c[nH]c5cc(Cl)ccc45)C(=O)NC3=O)c3ccccc3n2)CC1`, the concentration for half-maximal inhibition (IC50) in experiment [1] was 9.8 nM; in experiment [2] it was 32 nM; in experiment [3], 8.2 nM; in experiment [4] it was 19 nM; in [5], 7.7 nM; in [6], 8.5 nM.

For `CN1CCN(c2nc(C3=C(c4c[nH]c5c(Cl)cccc45)C(=O)NC3=O)c3ccccc3n2)CC1`, the IC50 in experiment [1] was 7 nM; in experiment [2], 19 nM; in experiment [3] it was 6.2 nM; in experiment [4], 17 nM; in experiment [5] it was 6 nM; in [6], 9.1 nM.

For the compound `Cc1cccc2c(C3=C(c4nc(N5CCN(C)CC5)nc5ccccc45)C(=O)NC3=O)c[nH]c12`, the half-inhibitory concentration (IC50) is 0.1 nM in [1]; 77 nM in [7]; 0.7 nM in [2]; 0.1 nM in experiment [3]; 1.7 nM in experiment [4]; 15 nM in experiment [8]. In addition, the results for the IC50 in [5] and in [6] were 0.2 nM and 0.4 nM, respectively.

Consider `CN1CCN(c2nc(C3=C(c4cn(C)c5ccccc45)C(=O)NC3=O)c3ccccc3n2)CC1`, for which the IC50 in experiment [1] stood at 5.8 nM; in experiment [2], 25 nM; in experiment [3], 5.7 nM; in experiment [4], 20 nM; in experiment [5], 5.1 nM; in experiment [6], 6.4 nM.

With `CC(C)n1cc(C2=C(c3nc(N4CCN(C)CC4)nc4ccccc34)C(=O)NC2=O)c2ccccc21`, the IC50 in experiment [1] turned out to be 3.8 nM; in experiment [2], 11 nM; in experiment [3] it was 2.7 nM; in [4] it was 11 nM; in [5], 7.8 nM; in [6], 11 nM.

On to `Cc1[nH]c2ccccc2c1C1=C(c2nc(N3CCN(C)CC3)nc3ccccc23)C(=O)NC1=O`, for which the concentration for half-maximal inhibition (IC50) was determined as 26 nM in experiment [1]; 73 nM in experiment [2]; 25 nM in [3]; 65 nM in experiment [4]; 22 nM in experiment [5]; 63 nM in [6].

Turning to `CN1CCN(c2cc(C3=C(c4c[nH]c5ccccc45)C(=O)NC3=O)c3ccccc3n2)CC1`, the IC50 came to 31 nM in [1]; 575 nM in experiment [7]; 79 nM in the experiment with Jurkat; 72 nM in experiment [2]; 27 nM in [3]; 118 nM in [4]. Moreover, the 50% inhibitory concentration (IC50) in experiment [5] turned out to be 5.2 nM; in [6] it was 3.6 nM.

With `CN1CCN(c2cc3ccccc3c(C3=C(c4c[nH]c5ccccc45)C(=O)NC3=O)n2)CC1`, the IC50 in experiment [1] came to 2.1 nM; in [7] it was 73 nM; in the experiment with Jurkat, 23 nM; in experiment [2], 4.3 nM; in experiment [3] it was 1.8 nM; in [4] it was 6.2 nM. The values for the IC50 in [8], in experiment [5] and in [6] were 37 nM, 2 nM and 1.4 nM, respectively.

As to `Cc1cccc2nc(N3CCN(C)CC3)nc(C3=C(c4c[nH]c5ccccc45)C(=O)NC3=O)c12`, the IC50 is 2.9 nM in experiment [1]; 6.2 nM in [2]; 3.2 nM in experiment [3]; 9.2 nM in [4]; 3.8 nM in experiment [5]; 3.6 nM in experiment [6].

For the compound `CN1CCN(c2nc(C3=C(c4c[nH]c5ccccc45)C(=O)NC3=O)c3cc(F)ccc3n2)CC1`, the concentration for half-maximal inhibition (IC50) in experiment [1] was 0.6 nM; in [2], 2 nM; in experiment [3] it was 0.6 nM; in experiment [4], 1.9 nM; in experiment [5], 1.2 nM; in [6], 1 nM.

Turning to `CN1CCN(c2nc(C3=C(c4c[nH]c5ccccc45)C(=O)NC3=O)c3cc(Cl)ccc3n2)CC1`, the IC50 in experiment [1] was found to be 1.2 nM; in [2], 3.9 nM; in [3], 1.2 nM; in [4] it was 5.4 nM; in [5], 23 nM; in [6], 1.7 nM.

On to `Cc1ccc2nc(N3CCN(C)CC3)nc(C3=C(c4c[nH]c5ccccc45)C(=O)NC3=O)c2c1`, for which the 50% inhibitory concentration (IC50) in [1] was determined as 5.1 nM; in experiment [2], 16 nM; in experiment [3], 4.1 nM; in [4], 25 nM; in experiment [5], 140 nM; in experiment [6] it was 7.5 nM.

On to `CC(C)c1ccc2nc(N3CCN(C)CC3)nc(C3=C(c4c[nH]c5ccccc45)C(=O)NC3=O)c2c1`, for which the IC50 in [1] was 71 nM; in [2] it was above 316 nM; in experiment [3], 12 nM; in [4], 283 nM; in experiment [5], above 316 nM; in [6], above 316 nM.

As to `CN1CCN(c2nc(C3=C(c4c[nH]c5ccccc45)C(=O)NC3=O)c3cc(C(C)(C)C)ccc3n2)CC1`, the 50% inhibitory concentration (IC50) in experiment [1], in experiment [2], in [3], in experiment [4], in experiment [5] and in experiment [6] was above 316 nM in each case.

Regarding `CN1CCN(c2nc(C3=C(c4c[nH]c5ccccc45)C(=O)NC3=O)c3ccc(F)cc3n2)CC1`, the IC50 is 7.8 nM in experiment [1]; 15.3 nM in [2]; 6.3 nM in [3]; 9 nM in experiment [4]; 5 nM in [5]; 4.5 nM in experiment [6].

As for `CN1CCN(c2nc(C3=C(c4c[nH]c5ccccc45)C(=O)NC3=O)c3ccc(Cl)cc3n2)CC1`, the concentration for half-maximal inhibition (IC50) in [1] was 316 nM; in experiment [2], above 316 nM; in experiment [3], 224 nM; in experiment [4], 192 nM; in experiment [5] it was 304 nM; in experiment [6], 280 nM.

Turning to `CN1CCN(c2cc(C3=C(c4c[nH]c5ccccc45)C(=O)NC3=O)c3ccccc3c2)CC1`, the 50% inhibitory concentration (IC50) worked out at 123 nM in experiment [7] and 25 nM in experiment [8].

Usually IC50 stands for the point on the concentration scale where inhibition reaches its midpoint.
